Experimental data published in patent publication US20240391931A1 (Bristol-Myers Squibb Company, priority 2021, published 2024).

What was measured:
[1] = biological target: T1, HER2 wildtype (WT) protein (Homo sapiens, UniProt P04626); test: HER2 signaling (pHER2 Tyr1248/total HER2 MSD) in BT474 cells; assay type: cell-based; conditions: 1.5 hr compound, 1% FBS
T1 construct: BT474 and N87 cell lines which endogenously overexpress the HER2 wildtype (WT) protein; endogenous in cells; host or cells: BT474, N87
Experimental: (§1) In addition to the engineered cell lines, the following cell lines were used: BT474 (human breast carcinoma), N87 (human gastric carcinoma), NCI-H1781 (human lung adenocarcinoma), and A431 (human epidermoid carcinoma); all cell lines were obtained from the American Type Culture Collection (ATCC, Manassas, VA). NCI-H1781 were grown in complete RPMI 1640 (Life Technologies, Carlsbad, CA) supplemented with 15% fetal bovine serum (FBS, Life Technologies, Carlsbad, CA) and 1% Penicillin-Streptomycin (P/S, Life Technologies, Carlsbad, CA). N87 cells were grown in complete RPMI 1640 supplemented with 10% FBS and 1% P/S. BT474 and A431 cells were grown in DMEM (Life Technologies, Carlsbad, CA) supplemented with 10% FBS and 1% P/S. All cells were maintained and propagated in a humidified 5% CO2 incubator at 37° C.
HER2 signaling was assessed in BT474 and N87 cell lines which endogenously overexpress the HER2 wildtype (WT) protein, in NCI-H1781 cells which endogenously expresses a HER2 mutant protein containing a VC insertion in the kinase domain (HER2VC or G776delinsVC), and in engineered cell lines transduced to express the Her2 mutant protein containing the YVMA insertion (Hek293-HER2YVMA and BEAS2B-HER2YVMA).
BT474, N87, and NCI-H1781 were plated in 96-well tissue-culture treated plates (Corning Costar, Sigma-Aldrich) in full media and incubated overnight. Hek293-HER2YVMA and BEAS2B-HER2YVMA cells were plated in 96-well poly-D-lysine treated plates (BD Bioscience, San Jose, CA). For treatment with test compounds, the media was replaced with corresponding low serum media (1% FBS) containing test compound at 1.1, 0.37, 0.12, 0.041, 0.014, 0.005, 0.0014, 0.0005 μM or DMSO control (0.1%). Cells were incubated with compound for 1.5 hr at 37° C. After compound treatment, the media was removed and cells were lysed for 30 min on ice in complete MSD lysis buffer (prepared using MSD base lysis buffer (Meso-Scale Discovery) supplemented with cOmplete, EDTA-free Protease inhibitor cocktail (Roche), Phosphatase Inhibitor Cocktails 2 and 3 (Sigma-Aldrich), and 1 mM PMSF (Sigma-Aldrich)). Lysates were stored at −70° C. until further analysis.
HER2 signaling was evaluated using phospho (Tyr1248)/total ErbB2 whole cell lysate MSD plates (Meso-Scale Discovery, Gaithersburg, MD). The phospho HER2 signal was normalized to total HER2 for each sample; results are reported as % DMSO control. The normalized data was fitted using a sigmoidal curve analysis program (Graph Pad Prism version 6) with variable Hill slope to determine EC50 values.
The HER2 signaling results are provided in Table 4, under columns titled “BT474-pHER2 EC50”, “N87-pHER2 EC50”, and “NCI-H1781-pHER2 EC50”. Hek293-HER2YVMA ins fall under the heading “HEKYVMA-pHER2 EC50”, Ba/F3 HER2YVMA fall under the heading “Ba/F3 YVMA-pHER2 EC50” and BEAS2B-HER2YVMA fall under the heading “BEAS2B YVMA-pHER2 EC50”.

EGFR = EGFR (Homo sapiens, UniProt P00533); test: EGFR signaling (pEGFR Tyr1068/total EGFR MSD) in A431 cells; assay type: cell-based; design: endogenous in cells; host or cells: A431, N87; conditions: for EC50: A431 cells, read-out: A431 pEGFR EC50; for Selectivity A431 EC50/BT474 EC50: ratio A431 pEGFR EC50 to BT474 pHER2 EC50; for Selectivity A431 EC50/HEKYVMA EC50: ratio A431 pEGFR EC50 to HEK YVMA pHER2 EC50
Experimental: as §1
A431 Cells were plated in 96-well tissue-culture treated plates in full media for 6 h, then starved with media containing 0.1% FBS for overnight. Media was replaced with low serum media (1% FBS) containing compound at 10, 3.3, 1.1, 0.37, 0.12, 0.041, 0.014, 0.005 μM or DMSO control (0.1%). Cells were incubated for 1.5 hr, then stimulated with 100 ng/mL human EGF (PeproTech, Rocky Hill, NJ) for 10 minutes. Cells were washed with cold PBS, and lysed for 30 min on ice in complete MSD lysis buffer (prepared as described in HER2 Signaling Method); lysates were stored at −70° C. until further analysis. EGFR signaling was evaluated using phospho (Tyr 1068)/total EGFR whole cell lysate kit (Meso-Scale Discovery, Gaithersburg, MD). The phospho EGFR signal was normalized to total EGFR for each sample; results are reported as % DMSO control. The normalized data was fitted using a sigmoidal curve analysis program (Graph Pad Prism version 6) with variable Hill slope to determine EC50 values. The results are provided in Table 4, under column titled “A431-pEGFR EC50”.

Sequence of EGFR (P00533 25-1210): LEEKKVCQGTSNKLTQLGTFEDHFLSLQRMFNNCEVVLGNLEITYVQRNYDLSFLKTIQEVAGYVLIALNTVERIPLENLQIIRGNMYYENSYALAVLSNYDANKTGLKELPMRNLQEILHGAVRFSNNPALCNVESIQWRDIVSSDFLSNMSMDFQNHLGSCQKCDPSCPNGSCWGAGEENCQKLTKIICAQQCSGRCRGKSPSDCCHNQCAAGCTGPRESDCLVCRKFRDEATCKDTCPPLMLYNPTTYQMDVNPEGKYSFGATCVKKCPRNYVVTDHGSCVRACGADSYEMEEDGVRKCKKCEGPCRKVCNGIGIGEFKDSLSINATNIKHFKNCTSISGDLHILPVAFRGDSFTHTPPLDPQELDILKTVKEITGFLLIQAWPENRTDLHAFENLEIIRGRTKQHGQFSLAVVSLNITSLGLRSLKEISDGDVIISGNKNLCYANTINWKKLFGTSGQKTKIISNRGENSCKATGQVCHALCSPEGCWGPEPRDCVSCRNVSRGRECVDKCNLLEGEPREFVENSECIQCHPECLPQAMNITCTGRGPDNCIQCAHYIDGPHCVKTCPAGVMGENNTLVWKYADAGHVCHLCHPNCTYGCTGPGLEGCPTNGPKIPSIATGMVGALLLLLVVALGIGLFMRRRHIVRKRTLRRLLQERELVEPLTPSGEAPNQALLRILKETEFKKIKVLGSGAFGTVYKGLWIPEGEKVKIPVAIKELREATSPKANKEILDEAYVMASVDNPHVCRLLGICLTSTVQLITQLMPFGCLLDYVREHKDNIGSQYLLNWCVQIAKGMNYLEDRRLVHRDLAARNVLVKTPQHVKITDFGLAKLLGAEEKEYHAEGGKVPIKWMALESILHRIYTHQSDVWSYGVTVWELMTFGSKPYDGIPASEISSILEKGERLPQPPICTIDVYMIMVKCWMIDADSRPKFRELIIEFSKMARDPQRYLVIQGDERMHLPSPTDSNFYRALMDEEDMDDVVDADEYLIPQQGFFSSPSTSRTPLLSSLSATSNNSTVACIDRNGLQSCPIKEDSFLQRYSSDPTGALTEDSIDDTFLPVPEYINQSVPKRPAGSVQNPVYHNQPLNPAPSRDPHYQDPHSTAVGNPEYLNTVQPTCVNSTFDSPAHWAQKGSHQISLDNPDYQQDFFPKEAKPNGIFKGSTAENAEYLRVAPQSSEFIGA
T1 sequence (P04626 23-1255): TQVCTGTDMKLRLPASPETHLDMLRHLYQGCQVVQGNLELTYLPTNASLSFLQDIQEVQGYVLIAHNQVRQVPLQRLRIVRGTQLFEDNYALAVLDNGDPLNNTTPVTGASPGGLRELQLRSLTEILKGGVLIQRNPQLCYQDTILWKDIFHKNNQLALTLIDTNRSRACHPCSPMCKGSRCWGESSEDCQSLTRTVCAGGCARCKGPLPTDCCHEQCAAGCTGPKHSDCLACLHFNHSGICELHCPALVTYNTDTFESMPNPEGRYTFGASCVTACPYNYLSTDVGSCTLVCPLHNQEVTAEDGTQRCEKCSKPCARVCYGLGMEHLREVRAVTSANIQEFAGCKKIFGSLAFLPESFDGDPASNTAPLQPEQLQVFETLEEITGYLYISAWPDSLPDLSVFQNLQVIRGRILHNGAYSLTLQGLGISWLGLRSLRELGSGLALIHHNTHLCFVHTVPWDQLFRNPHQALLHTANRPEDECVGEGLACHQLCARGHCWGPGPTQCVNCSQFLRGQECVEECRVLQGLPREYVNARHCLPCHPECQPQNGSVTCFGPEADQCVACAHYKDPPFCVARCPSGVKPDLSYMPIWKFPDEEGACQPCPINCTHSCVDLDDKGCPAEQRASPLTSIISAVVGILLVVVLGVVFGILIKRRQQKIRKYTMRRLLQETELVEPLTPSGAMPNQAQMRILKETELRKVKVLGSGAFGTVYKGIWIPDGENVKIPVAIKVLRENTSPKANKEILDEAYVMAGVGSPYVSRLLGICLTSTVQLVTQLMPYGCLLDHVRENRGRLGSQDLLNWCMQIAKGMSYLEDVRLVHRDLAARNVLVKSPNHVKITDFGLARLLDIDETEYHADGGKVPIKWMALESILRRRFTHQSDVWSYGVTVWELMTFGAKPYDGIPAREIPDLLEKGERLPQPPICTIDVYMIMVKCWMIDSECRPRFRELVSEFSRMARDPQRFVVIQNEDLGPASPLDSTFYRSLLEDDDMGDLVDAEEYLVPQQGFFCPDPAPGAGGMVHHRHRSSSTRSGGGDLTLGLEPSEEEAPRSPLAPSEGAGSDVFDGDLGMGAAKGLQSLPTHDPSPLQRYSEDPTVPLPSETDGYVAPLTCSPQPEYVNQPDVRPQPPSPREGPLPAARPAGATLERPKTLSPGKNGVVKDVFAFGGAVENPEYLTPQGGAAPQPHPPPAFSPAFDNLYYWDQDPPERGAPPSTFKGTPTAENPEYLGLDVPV

| Compound | EC50 [1] [nM] | EC50 (EGFR) [nM] | Selectivity A431 EC50/BT474 EC50 (EGFR) | Selectivity A431 EC50/HEKYVMA EC50 (EGFR) |
| --- | --- | --- | --- | --- |
| C=CC(=O)N1Cc2sc3ncnc(Nc4ccc(Oc5ccc(C)nc5)c(C)c4)c3c2C(C)C1 (single isomer, unassigned) [Compound 145] | < 100 | 100 to 1000 | C (C: ≥ 10 and < 20) | E (E: >1 and < 5) |
| C=CC(=O)N1Cc2sc3ncnc(Nc4ccc(Oc5ccc(C)nc5)c(C)c4)c3c2C(C)C1 (single isomer, unassigned) [Compound 146] | < 100 | < 100 | C (C: ≥ 10 and < 20) | D (D: ≥ 5 and < 10) |
| COc1ccc(Oc2ccc(Nc3ncnc4sc5c(c34)C(C)CN(C(=O)C=CCN(C)C)C5)cc2C)cn1 (single isomer, unassigned) [Compound 159] | < 100 | 100 to 1000 | C (C: ≥ 10 and < 20) | E (E: >1 and < 5) |
| COc1ccc(Oc2ccc(Nc3ncnc4sc5c(c34)C(C)CN(C(=O)C=CCN(C)C)C5)cc2C)cn1 (single isomer, unassigned) [Compound 160] | < 100 | 100 to 1000 | D (D: ≥ 5 and < 10) | D (D: ≥ 5 and < 10) |
| Cc1ccc(Oc2ccc(Nc3ncnc4sc5c(c34)C(C)CN(C(=O)C=CCN3CCOCC3)C5)cc2C)cn1 (single isomer, unassigned) [Compound 176] | < 100 | 1000 to 10000 | B (B: ≥ 20 and < 100) | B (B: ≥ 20 and < 100) |
| Cc1ccc(Oc2ccc(Nc3ncnc4sc5c(c34)C(C)CN(C(=O)C=CCN3CCOCC3)C5)cc2C)cn1 (single isomer, unassigned) [Compound 177] | < 100 | 100 to 1000 | C (C: ≥ 10 and < 20) | D (D: ≥ 5 and < 10) |
| Cc1ccc(Oc2ccc(Nc3ncnc4sc5c(c34)C(C)CN(C(=O)C=CCN(C)C(C)(C)C)C5)cc2C)cn1 (single isomer, unassigned) [Compound 178] | < 100 | 100 to 1000 | D (D: ≥ 5 and < 10) | E (E: >1 and < 5) |
| Cc1ccc(Oc2ccc(Nc3ncnc4sc5c(c34)C(C)CN(C(=O)C=CCN(C)C(C)(C)C)C5)cc2C)cn1 (single isomer, unassigned) [Compound 179] | < 100 | < 100 | B (B: ≥ 20 and < 100) | E (E: >1 and < 5) |
| C=CC(=O)N1CCc2c(sc3ncnc(Nc4ccc(Oc5cccnc5)c(Cl)c4)c23)C1 [Compound 6, 1-(4-((3-chloro-4-(pyridin-3-yloxy)phenyl)amino)-5,8-dihydropyrido[4′,3′:4,5]thieno[2,3-d]pyrimidin-7(6H)-yl)prop-2-en-1-one] | < 100 | < 100 | E (E: >1 and < 5) | E (E: >1 and < 5) |

More lines, now with the values ahead:

| EC50 [1] [nM] | EC50 (EGFR) [nM] | Selectivity A431 EC50/BT474 EC50 (EGFR) | Selectivity A431 EC50/HEKYVMA EC50 (EGFR) | Compound |
| --- | --- | --- | --- | --- |
| < 100 | 100 to 1000 | B (B: ≥ 20 and < 100) | D (D: ≥ 5 and < 10) | Cc1ccc(Oc2ccc(Nc3ncnc4sc5c(c34)C[C@@H](C)N(C(=O)/C=C/CN(C)C)[C@H]5C)cc2C)cn1 (racemic) [Compound 149, (E)-1-(6,8-cis-dimethyl-4-((3-methyl-4-((6-methylpyridin-3-yl)oxy)phenyl)amino)-5,8-dihydropyrido[4′,3′:4,5]thieno[2,3-d]pyrimidin-7(6H)-yl)-4-(dimethylamino)but-2-en-1-one] |
| < 100 | 1000 to 10000 | B (B: ≥ 20 and < 100) | D (D: ≥ 5 and < 10) | Cc1ccc(Oc2ccc(Nc3ncnc4sc5c(c34)C[C@@H](C)N(C(=O)/C=C/CN(C)C)[C@@H]5C)cc2C)cn1 (racemic) [Compound 165, (E)-1-(6,8-trans-dimethyl-4-((3-methyl-4-((6-methylpyridin-3-yl)oxy)phenyl)amino)-5,8-dihydropyrido[4′,3′:4,5]thieno[2,3-d]pyrimidin-7(6H)-yl)-4-(dimethylamino)but-2-en-1-one] |
| < 100 | 100 to 1000 | B (B: ≥ 20 and < 100) | C (C: ≥ 10 and < 20) | C=CC(=O)N1[C@H](C)Cc2c(sc3ncnc(Nc4ccc(Oc5ccc(C)nc5)c(C)c4)c23)[C@H]1C (racemic) [Compound 166, 1-(6,8-trans-dimethyl-4-((3-methyl-4-((6-methylpyridin-3-yl)oxy)phenyl)amino)-5,8-dihydropyrido[4′,3′:4,5]thieno[2,3-d]pyrimidin-7(6H)-yl)prop-2-en-1-one] |
| < 100 | < 100 | B (B: ≥ 20 and < 100) | D (D: ≥ 5 and < 10) | Cc1ccc(Oc2ccc(Nc3ncnc4sc5c(c34)C(C)N(C(=O)C=CCN(C)C)C5)cc2C)cn1 (single isomer, unassigned) [Compound 147] |
| 100 to 350 | > 10000 | B (B: ≥ 20 and < 100) | C (C: ≥ 10 and < 20) | Cc1ccc(Oc2ccc(Nc3ncnc4sc5c(c34)C(C)N(C(=O)C=CCN(C)C)C5)cc2C)cn1 (single isomer, unassigned) [Compound 148] |
| < 100 | < 100 | D (D: ≥ 5 and < 10) | E (E: >1 and < 5) | Cc1ccc(Oc2ccc(Nc3ncnc4sc5c(c34)CC(C)N(C(=O)C=CCN(C)C)C5C)cc2C)cn1 (single isomer, unassigned) [Compound 161] |
| 100 to 350 | > 10000 | B (B: ≥ 20 and < 100) | B (B: ≥ 20 and < 100) | Cc1ccc(Oc2ccc(Nc3ncnc4sc5c(c34)CC(C)N(C(=O)C=CCN(C)C)C5C)cc2C)cn1 (single isomer, unassigned) [Compound 162] |
| < 100 | 100 to 1000 | C (C: ≥ 10 and < 20) | D (D: ≥ 5 and < 10) | Cc1ccc(Oc2ccc(Nc3ncnc4sc5c(c34)CN(C(=O)C=CCN(C)C)C5C)cc2C)cn1 (single isomer, unassigned) [Compound 169] |
| 350 to 1000 | < 100 | B (B: ≥ 20 and < 100) | B (B: ≥ 20 and < 100) | Cc1ccc(Oc2ccc(Nc3ncnc4sc5c(c34)CN(C(=O)C=CCN(C)C)C5C)cc2C)cn1 (single isomer, unassigned) [Compound 170] |
